This note sets out measurements from PubChem BioAssay (NCI).

What all share (experiment): NCI anticancer screen, dose series, 48 h
Assay [1] concerns UO-31 renal.
Assay [2] deals with SW-620 colon.
Assay [3] concerns CAKI-1 renal.
For assay [4], the system named is LOX IMVI melanoma.
Assay [5] relates to A549 NSCLC.
Assay [6] has as its system NCI-H226 lung.
In assay [7] the test system is TK-10 renal.
Assay [8] has as its system A498 renal.
Assay [9] relates to HOP-62 NSCLC.
Assay [10] concerns SN12C renal.
Assay [11] concerns UACC-62 melanoma.
The test system of assay [12] is U251 CNS.
Assay [13] relates to HT29 colon.
For assay [14], the system named is HCT-116 colon.
In assay [15] the test system is SF-295 CNS.
The subject of assay [16] is MDA-MB-435.
In assay [17] the test system is DU-145 prostate.
Assay [18] deals with PC-3 prostate.
Assay [19] relates to SR leukemia.
In assay [20] the test system is MDA-N.

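Method: 48-hour compound exposure of cells in 96-well plates, five concentrations, linear interpolation of endpoints. The concentration for full growth arrest is given as TGI.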

As for `O=C1CCCCC1C1(O)C(=O)Nc2cc(F)ccc21` (stereo not given), the TGI in assay [1], in [2], in [3], in assay [4], in assay [5] and in [6] was greater than 100 µM each time. In addition, the TGI in [7], in [8], in assay [9], in [10], in [11] and in [12] was greater than 100 µM throughout. Further, the TGI in assay [13], in [14] and in [15] was greater than 100 µM throughout.

For `OCC1C(O)C(O)[C@@H]2SCCN12` (stereo not given in full), the TGI in [16], in [1], in assay [2], in [3], in [4] and in assay [5] was greater than 100 µM throughout. Besides, the TGI in [6], in [7], in assay [8], in assay [17], in [18] and in assay [9] was greater than 100 µM each time. Also, the TGI in assay [11], in assay [12], in assay [19], in assay [13], in assay [14] and in assay [15] was greater than 100 µM in each case.

Consider `CC(C)(C)OC(=O)N1C[C@H](CC(=O)OCc2ccccc2)C[C@H]1C(=O)OCC(Cl)(Cl)Cl`, for which the TGI was greater than 50 µM in assay [16]; 11 µM in assay [1]; greater than 50 µM in assay [2]; greater than 50 µM in assay [3]; greater than 50 µM in [4]; greater than 50 µM in assay [5]. Also, the TGI in [6] is 29.1 µM; in assay [7], greater than 50 µM; in assay [8], 25.9 µM; in assay [17] it was greater than 50 µM; in [18], greater than 50 µM; in assay [9] it was greater than 50 µM. Moreover, the TGI in assay [10] is greater than 50 µM; in assay [11], greater than 50 µM; in assay [12] it was 16.1 µM; in [19] it was 15.7 µM; in assay [13], greater than 50 µM; in assay [14] it was greater than 50 µM. For the same molecule, the TGI in [15] was greater than 50 µM.

For the molecule `Fc1ccc(C2(CCCN3CCc4[nH]c5cc(F)ccc5c4C3)OCCO2)cc1`, the TGI in assay [16] was found to be 26.5 µM; in [1], 10.8 µM; in [2] it was 27.7 µM; in assay [4], 25.4 µM; in assay [5] it was 29 µM; in assay [6], 38.6 µM. Also, the TGI in assay [7] stood at 28.1 µM; in assay [8], 28.9 µM; in assay [17], 28 µM; in [9] it was 25.7 µM; in assay [10] it was 31.6 µM; in assay [11] it was 26.7 µM. Besides, the TGI in assay [12] turned out to be 28.1 µM; in assay [19] it was 22 µM; in assay [13], 15 µM; in assay [14], 24 µM; in assay [15], 27.4 µM.

Consider `COc1cc(/C=C2\N=C(c3ccccc3)N(c3nc4c(Cl)cc(Cl)cc4s3)C2=O)ccc1O`, for which the TGI in assay [16] is greater than 100 µM; in assay [1], 69 µM; in assay [2], greater than 100 µM; in assay [3], greater than 100 µM; in assay [4], 53.6 µM; in [5], greater than 100 µM. Besides, the TGI in assay [7] is greater than 100 µM; in [8], 49 µM; in assay [17], greater than 100 µM; in assay [18], 38.3 µM; in [9] it was greater than 100 µM; in assay [10], 51.4 µM. Moreover, the TGI is greater than 100 µM in assay [11]; 75.4 µM in assay [12]; 29.6 µM in assay [19]; 78.5 µM in assay [13]; 59.7 µM in assay [14]; greater than 100 µM in assay [15].

On to `CN(C)c1ccc(/C=C2\C[C@H]3[C@@H]4CCC5=CC(=O)CC[C@]5(C)[C@H]4CC[C@]3(C)C2=O)cc1`, for which the TGI in assay [1] was greater than 100 µM; in [2], greater than 100 µM; in [3], greater than 100 µM; in [4] it was 41.7 µM; in assay [5], greater than 100 µM; in assay [6], greater than 100 µM. The TGI in [7] is greater than 100 µM; in assay [8] it was greater than 100 µM; in assay [20], greater than 100 µM; in [17] it was greater than 100 µM; in assay [18], 66.8 µM; in assay [9], greater than 100 µM. Besides, the TGI in assay [10] was greater than 100 µM; in assay [11], greater than 100 µM; in assay [12], 85.6 µM; in assay [19], greater than 100 µM; in [13] it was greater than 100 µM; in assay [14] it was greater than 100 µM. Also, the TGI in assay [15] was greater than 100 µM.

`CNC(=S)NNC(=O)c1c(C)nc2sccn12`: the TGI in assay [2], in [3], in assay [4], in [5], in assay [6] and in [7] was greater than 100 µM in each case. The TGI in assay [9], in [10], in [11], in assay [12], in [19] and in assay [13] was greater than 100 µM each time. In addition, the TGI in [14] and in [15] was greater than 100 µM each time.

Regarding `COc1ccc(NC(=O)CSc2nnc(Cc3ccccc3)o2)cc1`, the TGI in assay [1], in assay [2], in assay [3], in [4], in [5] and in [6] was greater than 100 µM in each case. Besides, the TGI in assay [7], in [8], in [9], in assay [10], in [11] and in [12] was greater than 100 µM in each case. The TGI in [13], in assay [14] and in assay [15] was greater than 100 µM in each case.
